Test results as given in publication PMC10938783, “A novel pan-PI3K inhibitor KTC1101 synergizes with anti-PD-1 therapy by targeting tumor suppression and immune activation” (Molecular Cancer, 2024).

Test system: B16 cells gene expression
Test: RNA-Seq (DEGs, GSEA, heatmaps) of B16 cells
Conditions: B16 cells

## COc1cc(N)cc2c1nc(C(F)F)n2-c1nc(N2CCCOCC2)nc(N2CCOCC2)n1 [KTC1101, 2-(difluoromethyl)-4-methoxy-1-(4-morpholino-6-(1,4-oxazepan-4-yl)-1,3,5-triazin-2-yl)-1H-benzo[d]imidazol-6-amine]
GSEA KEGG mmu04975, KTC 0.2μM
  NES: Fat digestion and absorption: -1.65
  enrichmentScore: Fat digestion and absorption: -0.5488
GSEA KEGG mmu04976, KTC 0.2μM
  NES: Bile secretion: 1.51
  enrichmentScore: Bile secretion: 0.4976
GSEA KEGG mmu04978, KTC 0.2μM
  NES: Mineral absorption: -1.388
  enrichmentScore: Mineral absorption: -0.4138
GSEA KEGG mmu04979, KTC 0.2μM
  NES: Cholesterol metabolism: -1.456
  enrichmentScore: Cholesterol metabolism: -0.4442
GSEA KEGG mmu05010, KTC 0.2μM
  NES: Alzheimer disease: -1.608
  enrichmentScore: Alzheimer disease: -0.3072
GSEA KEGG mmu05012, KTC 0.2μM
  NES: Parkinson disease: -1.964
  enrichmentScore: Parkinson disease: -0.3949
GSEA KEGG mmu05014, KTC 0.2μM
  NES: Amyotrophic lateral sclerosis: -1.71
  enrichmentScore: Amyotrophic lateral sclerosis: -0.329
GSEA KEGG mmu05016, KTC 0.2μM
  NES: Huntington disease: -1.539
  enrichmentScore: Huntington disease: -0.3057
GSEA KEGG mmu05020, KTC 0.2μM
  NES: Prion disease: -1.774
  enrichmentScore: Prion disease: -0.3631
GSEA KEGG mmu05022, KTC 0.2μM
  NES: Pathways of neurodegeneration - multiple diseases: -1.25
  enrichmentScore: Pathways of neurodegeneration - multiple diseases: -0.2359
GSEA KEGG mmu05032, KTC 0.2μM
  NES: Morphine addiction: 2.084
  enrichmentScore: Morphine addiction: 0.6804
GSEA KEGG mmu05140, KTC 0.2μM
  NES: Leishmaniasis: 1.636
  enrichmentScore: Leishmaniasis: 0.5458
GSEA KEGG mmu05142, KTC 0.2μM
  NES: Chagas disease: 1.762
  enrichmentScore: Chagas disease: 0.5294
GSEA KEGG mmu05146, KTC 0.2μM
  NES: Amoebiasis: 1.187
  enrichmentScore: Amoebiasis: 0.3662
GSEA KEGG mmu05161, KTC 0.2μM
  NES: Hepatitis B: 1.161
  enrichmentScore: Hepatitis B: 0.3151
GSEA KEGG mmu05163, KTC 0.2μM
  NES: Human cytomegalovirus infection: 1.262
  enrichmentScore: Human cytomegalovirus infection: 0.333
GSEA KEGG mmu05166, KTC 0.2μM
  NES: Human T-cell leukemia virus 1 infection: 1.309
  enrichmentScore: Human T-cell leukemia virus 1 infection: 0.342
GSEA KEGG mmu05167, KTC 0.2μM
  NES: Kaposi sarcoma-associated herpesvirus infection: 1.355
  enrichmentScore: Kaposi sarcoma-associated herpesvirus infection: 0.3649
GSEA KEGG mmu05168, KTC 0.2μM
  NES: Herpes simplex virus 1 infection: 1.765
  enrichmentScore: Herpes simplex virus 1 infection: 0.4327
GSEA KEGG mmu05202, KTC 0.2μM
  NES: Transcriptional misregulation in cancer: 1.705
  enrichmentScore: Transcriptional misregulation in cancer: 0.4772
GSEA KEGG mmu05205, KTC 0.2μM
  NES: Proteoglycans in cancer: 1.25
  enrichmentScore: Proteoglycans in cancer: 0.3314
GSEA KEGG mmu05208, KTC 0.2μM
  NES: Chemical carcinogenesis - reactive oxygen species: -1.582
  enrichmentScore: Chemical carcinogenesis - reactive oxygen species: -0.3305
GSEA KEGG mmu05215, KTC 0.2μM
  NES: Prostate cancer: 1.478
  enrichmentScore: Prostate cancer: 0.4248
GSEA KEGG mmu05217, KTC 0.2μM
  NES: Basal cell carcinoma: -1.6573
  enrichmentScore: Basal cell carcinoma: -0.5057
GSEA KEGG mmu05221, KTC 0.2μM
  NES: Acute myeloid leukemia: 1.189
  enrichmentScore: Acute myeloid leukemia: 0.3668
GSEA KEGG mmu05222, KTC 0.2μM
  NES: Small cell lung cancer: 1.1778
  enrichmentScore: Small cell lung cancer: 0.3365
GSEA KEGG mmu05224, KTC 0.2μM
  NES: Breast cancer: 1.3909
  enrichmentScore: Breast cancer: 0.3926
GSEA KEGG mmu05225, KTC 0.2μM
  NES: Hepatocellular carcinoma: -1.183
  enrichmentScore: Hepatocellular carcinoma: -0.2565
GSEA KEGG mmu05226, KTC 0.2μM
  NES: Gastric cancer: 1.191
  enrichmentScore: Gastric cancer: 0.3347
GSEA KEGG mmu05230, KTC 0.2μM
  NES: Central carbon metabolism in cancer: -1.65
  enrichmentScore: Central carbon metabolism in cancer: -0.4278
GSEA KEGG mmu05321, KTC 0.2μM
  NES: Inflammatory bowel disease: 1.418
  enrichmentScore: Inflammatory bowel disease: 0.5282
GSEA KEGG mmu05323, KTC 0.2μM
  NES: Rheumatoid arthritis: 1.449
  enrichmentScore: Rheumatoid arthritis: 0.4777
GSEA KEGG mmu05410, KTC 0.2μM
  NES: Hypertrophic cardiomyopathy: 1.341
  enrichmentScore: Hypertrophic cardiomyopathy: 0.4238
GSEA KEGG mmu05414, KTC 0.2μM
  NES: Dilated cardiomyopathy: 1.501
  enrichmentScore: Dilated cardiomyopathy: 0.4674
GSEA KEGG mmu05415, KTC 0.2μM
  NES: Diabetic cardiomyopathy: -1.29
  enrichmentScore: Diabetic cardiomyopathy: -0.2769
GSEA KEGG mmu05418, KTC 0.2μM
  NES: Fluid shear stress and atherosclerosis: -1.4518
  enrichmentScore: Fluid shear stress and atherosclerosis: -0.3333
KTC1101 0.2μM, GSEA KEGG
  NES, mmu00071 Fatty acid degradation: 0.7528
  NES, mmu00310 Lysine degradation: -0.7398
  NES, mmu00380 Tryptophan metabolism: 1.209
  NES, mmu00500 Starch and sucrose metabolism: -1.196
  NES, mmu00510 N-Glycan biosynthesis: -0.6482
  NES, mmu00513 Various types of N-glycan biosynthesis: 1.019
  NES, mmu00514 Other types of O-glycan biosynthesis: 1.221
  NES, mmu00562 Inositol phosphate metabolism: -1.021
  NES, mmu00564 Glycerophospholipid metabolism: -0.7177
